According to patent US20050186290A1, “Use of aquaglyceroporin modulators as slimming agent” (L'OREAL, priority 2003, published 2005):

Experiments:
Type in all cases: cell-based, mice
[1] = system: differentiated 3T3-L1 cells; assay: Fluorescence assay of glycerol released, Protocol 1 (without epinephrine); conditions: for Release of glycerol: summary
Procedure: (§1) The effects on the release of glycerol were tested in the presence of all the test products and using a fluorescence assay method. Glycerol was then assayed with regard to certain selected products using a calorimetric method and in the presence or the absence of HgCl2.
(§2) The cells used were mice preadipocytes of the 3T3-L1 line (40 000 cells/well).
(§3) The cells were cultured until confluency in a growth medium, with a change in medium every 2-3 days (24-well plates). • Growth medium: • DMEM (Life Technologies 21969035) L-glutamine, 2 mM (Life Technologies 25030024) • Penicillin 50 IU/ml streptomycin 50 μg/ml (Life Technologies 15070063) • Amphotericin B, 0.25 μg/ml (Sigma A2942) • Foetal calf serum, 10% v/v (Life Technologies 10106151).
(§4) At high confluency, the cells were transferred into a differentiation medium for 2×48 hours. • Differentiation medium: • DMEM (Life Technologies 21969035) • L-glutamine, 2 mM (Life Technologies 25030024) • Penicillin 50 IU/ml streptomycin 50 μg/ml (Life Technologies 15070063) • Foetal calf serum, 10% v/v (Life Technologies 10106151), • Isobutylmethylxanthine, 0.5 mM (IBMX, Sigma 17018) • Insulin, 5 μg/ml (Sigma 11882) • Dexamethasone, 1 μM (Sigma D1756)
After differentiation, the cells were transferred into DMEM medium+insulin (5 μg/ml final) for 72 hours and then into growth medium (DMEM/10% serum).
The differentiated cells were placed in test medium (MEM 100% (v/v), bicarbonate 1.87 mg/ml, glutamine 2 mM, delipidated bovine serum albumin 0.5% (w/v), penicillin/streptomycin 25 IU/ml/25 μg/ml) and were then treated with the test products or the references. After incubating at 37° C. for 1 h and 5% CO2, the culture supernatants were removed in order to assay the glycerol released.
The glycerol released into the culture medium was with a determined content of directly by measuring the fluorescence of the NADH produced in the following reaction sequence (according to Wieland). [drawing 1] Autofluorescence and quenching (absorption of the fluorescence) controls were carried out in order to determine possible interference of the products in this assay.

[2] = system: Aquaporin adipose (AQPap) messenger; assay: Relative expression of AQPap messenger by RT-Q-PCR in differentiated 3T3-L1 cells; conditions: for RE*AQP7 / AQP7/Actin % Control: 6 h; for RE*AQP7: n=2; for AQP7/Actin % Control: differentiated control = 100; for mRNA stimulation: summary
Procedure: The test was carried out on differentiated 3T3-L1 cells obtained as described in Example 1.
The differentiated cells were placed beforehand in test medium for 24 hours and were then treated with the test products or the references. After incubating for 6 h at 37° C. and 5% CO2, the culture supernatants were removed, the cells were rinsed with a PBS solution and the cell layers were placed in Tri-Reagent (Sigma T9424) and then immediately frozen at −80° C.
The expression of the markers selected was evaluated by RT-Q-PCR with regard to the messenger RNAs extracted from the cells corresponding to each treatment.
The marker β-actin (M12481) was used as reference marker.
The operational stages are as follows: • Extraction of the total RNAs using Tri-Reagent according to the protocol recommended by the supplier. Then further extraction with chloroform and precipitation with isopropanol. • Removal of the traces of potentially contaminating DNA by treatment with the DNA-free system (Ambion). After monitoring the quality of the RNAs obtained, the three samples corresponding to each treatment were pooled. • Carrying out the reverse transcription reaction on the mRNA in the presence of the oligo(dT) primer and of the Superscript II (Gibco) enzyme. • Quantification by fluorescence of the synthesized cDNA and adjustment of the concentrations to 50 ng/μl. Further quantification of each cDNA, after final dilution, is carried out before the PCR reaction.
The PCR (polymerase chain reactions) reactions were carried out by quantitative PCR with the “Light Cycler” system (Roche Molecular Systems Inc.) and according to the procedures recommended by the supplier.
The incorporation of fluorescence into the amplified DNA is carried out continuously during the PCR cycles. This system makes it possible to obtain curves of measurement of the fluorescence as a function of the PCR cycles and to thus evaluate a value of relative expression for each marker.
The number of cycles is determined from the “exit” points of the fluorescence curves. For the same marker analysed, the later the sample exits (high cycle number), the lower the initial number of mRNA copies.
The RE (relative expression) value is expressed in arbitrary units according to the following formula: (1/2^number of cycles)×10^6
Results: Effects of the various treatments on the relative expression of the Aquaporin adipose (AQPap) messenger. Results with respect to the amount of actin messenger (reference gene).
RE=Relative Expression, expressed in arbitrary units (AU), n=2.

[3] = system: differentiated 3T3-L1 cells; assay: Colorimetric assay of glycerol released, Protocol 1; conditions: Protocol 1, 40 μM
Procedure: as §1, §2, §3, §4
After differentiation, the cells were transferred into DMEM medium+insulin (5 μg/ml final) for 72 hours and then into growth medium (DMEM/10% serum). […]

[4] = system: differentiated 3T3-L1 cells; assay: Fluorescence assay of glycerol released, HgCl2 protocol (Protocol 3); conditions: 10 mM
Procedure: The majority of mammalian aquaporins are inhibited by mercury and its salts, whereas chemical inhibitors of diffusion are unknown (P. Agre et al., J. of Physiology, 2002, 542.1). The cells used were mice preadipocytes of the 3T3-L1 line (40 000 cells/well). The cells were cultured until confluency in a growth medium, with a change in medium every 2-3 days (24-well plates). • Growth medium: • DMEM (Life Technologies 21969035) L-glutamine, 2 mM (Life Technologies 25030024) • Penicillin 50 IU/ml streptomycin 50 μg/ml (Life Technologies 15070063) • Amphotericin B, 0.25 μg/ml (Sigma A2942) • Foetal calf serum, 10% v/v (Life Technologies 10106151). […] After differentiation, the cells were transferred into DMEM medium+insulin (5 μg/ml final) for 72 hours and then into growth medium (DMEM/10% serum). […] The differentiated cells were placed in test medium for 24 h. The cells were subsequently placed in PBS buffer comprising or not comprising HgCl2 (30 μM final) for 5 minutes at 37° C. After treatment with HgCl2, the cells were washed twice in PBS and then placed in test medium comprising or not comprising the test products. The culture supernatants were subsequently removed in order to assay the glycerol released.

[5] = Protocol 1 (Caophenol table), 40 μM

## CCCCCCCCCCC#CCSCC(=O)O [(Tridec-2-ynylthio)acetic acid]
[1]; 0.16-4.0 μg/ml
  Release of glycerol: No
[2]; 0.00032 mg/ml
  RE*AQP7: 0.912 AU
  AQP7/Actin % Control: 130%
[2]; 0.0016 mg/ml
  RE*AQP7: 0.872 AU
  AQP7/Actin % Control: 105%
[2]; 0.008 mg/ml
  RE*AQP7: 0.032 AU
  AQP7/Actin % Control: 174%
[2]; 0.16-4.0 μg/ml
  mRNA stimulation: Yes

## CNC[C@H](O)c1ccc(O)c(O)c1 [Epinephrine]
[1]; [5]
  % Control: 327%
  % theory, taking into account the quenching control: 327%
  Glycerol: 101.85 µM
[1]; Protocol 1, 40 μM, 1 h
  % Control: 352%
  Glycerol: 117.57 µM
[1]; differentiated preadipocytes, epinephrine 40 μM
  Glycerol: 149.5 µM
[1]; differentiated preadipocytes, epinephrine 40 μM, unstimulated differentiated = 100
  Δ%: 383%
[3]
  % Control: 795%
  Glycerol: 449.74 µM

## CCCCCCCCSCC#CCSCC(=O)O [{[4-(Octylthio)but-2-ynyl]thio}acetic acid]
[1]; 0.32-8.0 μg/ml
  Release of glycerol: No
[2]; 0.00016 mg/ml
  RE*AQP7: 0.023 AU
  AQP7/Actin % Control: 128%
[2]; 0.0008 mg/ml
  RE*AQP7: 0.022 AU
  AQP7/Actin % Control: 153%
[2]; 0.004 mg/ml
  RE*AQP7: 0.020 AU
  AQP7/Actin % Control: 167%
[2]; 0.32-8.0 μg/ml
  mRNA stimulation: Yes

## OCCS [β-Mercaptol]
[4]
  % theory, taking into account the quenching control: 155%
  Glycerol: 135.74 µM
[4]; HgCl2 control = 100
  % Control: 155%

## Aescin
[2]; 0.000128 mg/ml
  RE*AQP7: 0.034 AU
  AQP7/Actin % Control: 134%
[2]; 0.00064 mg/ml
  RE*AQP7: 0.039 AU
  AQP7/Actin % Control: 168%
[2]; 0.0032 mg/ml
  RE*AQP7: 0.043 AU
  AQP7/Actin % Control: 164%
[2]; 0.128-3.2 μg/ml
  mRNA stimulation: Yes
